# Measured values: patent US20090142323A1, “METHODS FOR TREATING A DISORDER BY REGULATING GPRC6A” (priority 2007, published 2009)
# Assays:
# GPRC6A [1] = target: T1, GPRC6A (Mus musculus, UniProt Q8K4Z6); assay: phospho-ERK activation in HEK-293 cells transfected with GPRC6A (immunoblot); format: cell-based; design: expressed in transfected cells; host or cells: HEK-293; details: for inhibition of testosterone stimulated GPRC6A-mediated activation of phospho-ERK: 10 μM PD89059, 50 μM Ly294002, 2 μM U73122, 10 μM PP-1; for block of GPRC6A-mediated extracellular testosterone stimulated signaling: either phospho-ERK or SRE-luciferase as read-outs
# T1 sequence (Q8K4Z6 21-928): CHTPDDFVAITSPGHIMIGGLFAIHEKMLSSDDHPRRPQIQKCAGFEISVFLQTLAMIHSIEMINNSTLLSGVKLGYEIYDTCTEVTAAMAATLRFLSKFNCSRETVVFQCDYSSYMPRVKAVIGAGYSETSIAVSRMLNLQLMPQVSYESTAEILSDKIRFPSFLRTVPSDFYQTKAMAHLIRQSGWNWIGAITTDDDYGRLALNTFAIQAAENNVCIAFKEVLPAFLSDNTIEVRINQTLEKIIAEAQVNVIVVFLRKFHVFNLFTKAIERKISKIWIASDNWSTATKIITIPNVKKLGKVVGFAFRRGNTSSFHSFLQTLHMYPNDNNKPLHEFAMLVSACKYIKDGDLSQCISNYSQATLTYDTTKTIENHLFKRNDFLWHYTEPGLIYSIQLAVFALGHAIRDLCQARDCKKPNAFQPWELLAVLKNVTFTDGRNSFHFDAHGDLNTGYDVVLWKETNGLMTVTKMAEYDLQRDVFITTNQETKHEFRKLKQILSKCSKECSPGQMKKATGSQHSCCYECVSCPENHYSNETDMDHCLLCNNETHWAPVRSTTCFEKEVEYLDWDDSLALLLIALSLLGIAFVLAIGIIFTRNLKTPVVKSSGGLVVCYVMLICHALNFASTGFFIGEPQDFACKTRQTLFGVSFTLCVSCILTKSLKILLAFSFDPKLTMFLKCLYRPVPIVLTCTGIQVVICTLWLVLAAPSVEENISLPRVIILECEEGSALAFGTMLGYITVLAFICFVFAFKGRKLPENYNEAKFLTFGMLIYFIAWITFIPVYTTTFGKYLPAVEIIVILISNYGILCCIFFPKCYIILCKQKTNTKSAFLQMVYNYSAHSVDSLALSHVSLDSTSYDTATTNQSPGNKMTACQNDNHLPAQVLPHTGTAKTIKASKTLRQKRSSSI
# Method: (§1) Equal amounts of lysates were subjected to 10% SDS-PAGE, and phospho-ERK1/2 levels were determined by immunoblotting using antiphospho-ERK1/2 mitogen-activated protein kinase antibody (Cell Signaling Technology). […] An anti-peptide antibody was raised in a rabbit against a peptide ([…] (SEQ ID NO: 27)) corresponding to a sequence in the extracellular domain of mouse GPRC6A (in exon 1 of mouse GPRC6A gene) produced by Abgent (San Diego, Calif.). For phospho-ERK, the phospho-ERK1/2 levels were determined by immunoblotting using anti-phospho-ERK1/2 mitogen-activated protein kinase antibody (Cell Signaling Technology). Urinary β2-microglobulin was detected by rabbit polyclonal anti-β2-microglobulin antibody (Abcam Inc.). For aromatase expression analysis, the rabbit polyclonal anti-aromatase antibody (Abcam Inc.) and goat anti-rabbit IgG HRP secondary antibody (Santa Cruz Biotechnology Inc.) were used. Mouse anti-Actin antibody (Santa Cruz Biotechnology Inc.) was used for control protein loading.
# osteoblastic cells = details: 10 nM; cited from earlier work
# [2] = tested on: bone marrow stromal cells (BMSC); assay: phospho-ERK in bone marrow stromal cells from wild-type and GPRC6A-/- mice; format: cell-based, mouse
# Method: The femurs and tibias from 8-week-old wild-type and GPRC6A^−/− mice were dissected, the ends of the bones were cut, and marrow was flushed out with 2 mL of ice-cold a-MEM containing 10% FBS using a needle and syringe. A suspension of bone marrow cells was obtained by repeated aspiration of the cell preparation through a 22-gauge needle, and nucleated cells were counted with a hemocytometer. Cells were seeded into 6-well plates at a density of 3×10^7 cells/mL and cultured for three days in a-MEM supplemented with 10% FBS, 100 kU/L of sodium penicillin G and 100 mg/L of streptomycin sulfate in a humidified incubator with 5% CO2 and 95% air at a temperature of 37° C. On day 3, all nonadherent cells were then removed with the first medium change and then the adherent cells (representing bone marrow-derived mesenchymal stem cells, BMSCs) were grown for additional periods of up 3 days in the same medium. After overnight quiescence, the cells were stimulated for 5 minutes by testosterone and p-estradiol at the concentrations as indicated.
# GPRC6A [3] = target: T1, GPRC6A; assay: SRE-luciferase reporter in HEK-293 cells co-transfected with pcDNA3.mGPRC6A; format: cell-based; design: expressed in transfected cells; host or cells: HEK-293; details: for inhibition of R1881 stimulated GPRC6A-mediated activation of luciferase: SRE-luciferase
# Method: HEK-293 cells were co-transfected with pcDNA3.mGPRC6A and SRE-luciferase reporter gene plasmid. […] Luciferase activity was assessed after 6 h of stimulation. The luciferase activity in cell extracts was measured using the luciferase assay system (Promega) following the manufacturer's protocol using a BG-luminometer (Gem Biomedical, Inc., Hamden, Conn.).
# GPRC6A [4] = target: T1, GPRC6A; assay: phospho-Src and phospho-Raf-1 western blot, GPRC6A-mediated; format: cell-based; design: expressed in transfected cells
# Source text: Several physiological processes arising as a result of the rapid action of the Src-Ras-ERK signaling pathway in steroids non-genomic action also have been reported. To define the role of GPRC6A in androgen-mediated cell signaling activation, we examine the Src and Raf-1 are involved in GPRC6A-mediated androgen stimulated intercellular signaling pathway.
# [5] = tested on: LNCaP prostate cancer cell line; details: 10 nM, within minutes; cited from earlier work
# [6] = target: T2, calcium sensing receptor (CASR) (Rattus norvegicus, UniProt P48442); assay: phospho-ERK in HEK-293 cells transfected with calcium sensing receptor; format: cell-based; details: HEK293 transfected with CASR
# T2 construct: expressed in transfected cells; host or cells: HEK-293
# T2 sequence (P48442 20-1079): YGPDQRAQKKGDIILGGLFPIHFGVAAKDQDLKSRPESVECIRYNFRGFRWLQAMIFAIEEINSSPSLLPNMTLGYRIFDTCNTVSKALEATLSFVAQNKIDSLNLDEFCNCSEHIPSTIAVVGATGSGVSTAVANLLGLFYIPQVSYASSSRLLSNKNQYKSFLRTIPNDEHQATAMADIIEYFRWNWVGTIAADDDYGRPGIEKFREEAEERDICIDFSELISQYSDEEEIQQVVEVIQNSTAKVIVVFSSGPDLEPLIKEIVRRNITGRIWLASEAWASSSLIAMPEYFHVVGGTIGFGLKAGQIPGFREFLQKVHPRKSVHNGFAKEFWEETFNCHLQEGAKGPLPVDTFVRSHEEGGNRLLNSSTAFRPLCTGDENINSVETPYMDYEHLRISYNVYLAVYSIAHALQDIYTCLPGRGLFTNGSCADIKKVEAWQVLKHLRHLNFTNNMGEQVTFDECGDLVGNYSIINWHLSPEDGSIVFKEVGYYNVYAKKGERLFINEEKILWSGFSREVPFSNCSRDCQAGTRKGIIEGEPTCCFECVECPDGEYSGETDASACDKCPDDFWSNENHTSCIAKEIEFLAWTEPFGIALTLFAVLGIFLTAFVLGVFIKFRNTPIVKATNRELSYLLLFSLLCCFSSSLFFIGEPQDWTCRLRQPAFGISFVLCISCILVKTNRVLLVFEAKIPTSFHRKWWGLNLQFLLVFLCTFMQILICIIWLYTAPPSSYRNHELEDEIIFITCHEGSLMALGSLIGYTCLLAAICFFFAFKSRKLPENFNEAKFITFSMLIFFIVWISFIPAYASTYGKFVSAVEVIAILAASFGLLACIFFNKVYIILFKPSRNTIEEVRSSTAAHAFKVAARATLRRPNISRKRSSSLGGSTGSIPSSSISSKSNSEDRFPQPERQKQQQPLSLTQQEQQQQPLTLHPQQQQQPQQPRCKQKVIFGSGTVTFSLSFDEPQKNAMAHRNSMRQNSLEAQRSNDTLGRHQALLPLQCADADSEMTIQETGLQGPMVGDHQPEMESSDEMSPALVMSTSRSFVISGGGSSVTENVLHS
# Method: as §1
# HEK-293 cells = assay: phospho-ERK in non-transfected HEK-293 control cells; format: cell-based, human; details: control HEK293, no GPRC6A
# Method: as §1
# GPRC6A [7] = target: T1, GPRC6A; design: expressed in transfected cells; details: in vitro; cited from earlier work
# [8] = HEK-293 cells transfected with GPRC6A
# [9] = BMSC from GPRC6A-/- mice, testosterone up to 80 nM
molecule,measurement,setting,value
"C=C1/C(=C\C=C2/CCC[C@]3(C)[C@@H]([C@H](C)CCCC(C)(C)O)CC[C@@H]23)C[C@@H](O)C[C@@H]1O [1,25(OH)2Vit D3]",GPRC6A-mediated activation of phospho-ERK,GPRC6A [1]; [8],stimulated the GPRC6A-mediated activation of phospho-ERK
C[C@]12CC[C@@H]3c4ccc(O)cc4CC[C@H]3[C@@H]1CC[C@@H]2O [17p-estradiol],GPRC6A-mediated activation of phospho-ERK,GPRC6A [1]; [8],stimulated the GPRC6A-mediated activation of phospho-ERK
same,concentration required to activate GPRC6A (phosphorylation of ERK),GPRC6A [1]; [8],60 to 80 nM
"C[C@]12CC[C@H](O)CC1=CC[C@@H]1[C@@H]2CC[C@]2(C)C(=O)CC[C@@H]12 [DHEA, Dehydroandrosterone]",GPRC6A-mediated activation of phospho-ERK,GPRC6A [1]; [8],stimulated the GPRC6A-mediated activation of phospho-ERK
C[C@]12CCC(=O)C[C@@H]1CC[C@@H]1[C@@H]2CC[C@]2(C)[C@@H](O)CC[C@@H]12 [DHT],Akt activity,osteoblastic cells,stimulation of Akt activity
COc1cccc([C@@H](C)NCCCc2ccccc2Cl)c1 [NPS-R568],stimulation of phospho-ERK in BMSC,[2]; [9],failed to responds
same,stimulation of phospho-ERK in BMSC,[2]; BMSC from wild-type mice,stimulation of ERK phosphorylation
COc1cccc(-c2cc(=O)c3ccccc3o2)c1N [PD89059],inhibition of R1881 stimulated GPRC6A-mediated activation of luciferase,GPRC6A [3],inhibited
same,inhibition of testosterone stimulated GPRC6A-mediated activation of phospho-ERK,GPRC6A [1],inhibited
same,block of GPRC6A-mediated extracellular testosterone stimulated signaling,GPRC6A [1],blocked
Cc1ccc(-c2nn(C(C)(C)C)c3ncnc(N)c23)cc1 [PP-1],inhibition of R1881 stimulated GPRC6A-mediated activation of luciferase,GPRC6A [3],inhibited
same,inhibition of testosterone stimulated GPRC6A-mediated activation of phospho-ERK,GPRC6A [1],inhibited
same,block of GPRC6A-mediated extracellular testosterone stimulated signaling,GPRC6A [1],blocked
C[C@]1(O)CC[C@H]2[C@@H]3CCC4=CC(=O)CCC4=C3C=C[C@@]21C [R1881],GPRC6A-mediated activation of phospho-Raf-1,GPRC6A [4],stimulated
same,GPRC6A-mediated activation of phospho-Src,GPRC6A [4],stimulated GPRC6A-mediated activation of phospho-Src
same,Src kinase activity,[5],stimulation of Src kinase activity
same,phospho-ERK response,[6],did not responded
same,GPRC6A mediated activation of luciferase,"GPRC6A [3]; SRE-luciferase reporter, HEK-293",stimulated the GPRC6A mediated activation of luciferase
same,phospho-ERK response,HEK-293 cells,did not responded
same,GPRC6A-mediated activation of phospho-ERK,GPRC6A [1]; [8],stimulated extracellular signal-regulated kinase phosphorylation (phospho-ERK) in a dose-dependent fashion
Cn1cc(C2=C(c3cn(CCCSC(=N)N)c4ccccc34)C(=O)NC2=O)c2ccccc21 [Ro31-8220],inhibition of R1881 stimulated GPRC6A-mediated activation of luciferase,GPRC6A [3],inhibited
same,block of GPRC6A-mediated extracellular testosterone stimulated signaling,GPRC6A [1],blocked
COc1ccc2c(c1)CC[C@@H]1[C@@H]2CC[C@]2(C)[C@@H](NCCCCCCN3C(=O)C=CC3=O)CC[C@@H]12 [U73122],inhibition of testosterone stimulated GPRC6A-mediated activation of phospho-ERK,GPRC6A [1],inhibited
CC(C)CCC[C@@H](C)[C@H]1CC[C@H]2[C@@H]3CC=C4C[C@@H](O)CC[C@]4(C)[C@H]3CC[C@]12C [cholesterol],GPRC6A-mediated activation of phospho-ERK,GPRC6A [1]; [8],stimulated the GPRC6A-mediated activation of phospho-ERK
"[Ca+2] [extracellular calcium, calcium]",stimulation of phospho-ERK in BMSC,[2]; [9],failed to responds
same,stimulation of phospho-ERK in BMSC,[2]; BMSC from wild-type mice,stimulation of ERK phosphorylation
CC(=O)[C@H]1CC[C@H]2[C@@H]3CCC4=CC(=O)CC[C@]4(C)[C@H]3CC[C@]12C [progesterone],GPRC6A-mediated activation of phospho-ERK,GPRC6A [1]; concentrations up to 80 nM,no effect
osteocalcin,functional responses of GPRC6A to extracellular calcium,GPRC6A [7],enhance the functional responses of GPRC6A to extracellular calcium
pertussis toxin,block of testosterone and β-estradiol stimulated activation of phospho-ERK,"GPRC6A [1]; 100 ng/ml PTx, stimuli at 50 nM",significantly blocked
